From patent US9499550B2 (BRISTOL-MYERS SQUIBB COMPANY, priority 2012, dated 2016) come the findings set out here.

In assay [1] the test system is HCV genotype 1a (H77 strain) replicon in HUH-7 cells. The assay can be described thus: HCV replicon luciferase reporter assay, genotype 1a. Particulars: Hepatitis C virus, Huh-7, 72 h, HCV genotype 1a replicon luciferase assay, 3 days incubation, range class, read-out: LE_1a (EC50, range). It counts as cell-based. In outline: (§1)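 Replicon inhibition for both genotypes was measured as Renilla luciferase signal (EnduRen, 7.5 μM final, 2 h) after 3-day, 37° C exposure of replicon-bearing HUH-7 cells in 4% FCS DMEM, 0.5% DMSO. The 1b construct carries S1179I; the 1a H77 construct carries P1496L and S2204I. Twenty-point, 3-fold dilutions were fitted four-parametrically for EC50, and CC50 was taken from multiplexed Cell Titer-Blue.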
For orientation: A replicon is a self-replicating genome or part of one, used to study replication in cells.

The subject of assay [2] is HCV genotype 1b (Con1) replicon in HUH-7 cells. The experiment in a line: HCV replicon luciferase reporter assay, genotype 1b. It is filed as cell-based. Particulars: Hepatitis C virus, Huh-7, 72 h, HCV genotype 1b replicon luciferase assay, 3 days incubation, range class, read-out: LE_1b (EC50, range). The gist of the method:
as §1

Take `COc1ccc2c(O[C@@H]3C[C@H]4C(=O)N[C@]5(C(=O)NS(=O)(=O)C6CC6)C[C@H]5/C=C\CC[C@H](C)C[C@@H](C)[C@H](NC(=O)OC(C)(C)C(F)(F)F)C(=O)N4C3)nc(-c3ccc(OC)c(F)c3)cc2c1` [Compound 3055, 1,1,1-trifluoro-2-methylpropan-2-yl((2R,6S,7R,9S,13aS,14aR,16aS,Z)-14a-((cyclopropylsulfonyl)carbamoyl)-2-((3-(3-fluoro-4-methoxyphenyl)-6-methoxyisoquinolin-1-yl)oxy)-7,9-dimethyl-5,16-dioxo-1,2,3,5,6,7,8,9,10,11,13a,14,14a,15,16,16a-hexadecahydrocyclopropa[e]pyrrolo[1,2-a][1,4]diazacyclopentadecin-6-yl)carbamate]: the EC50 in assay [1] was 4.82 to 103 nM; in assay [2] it was less than 5.46 nM.

As to `COc1ccc2c(O[C@@H]3C[C@H]4C(=O)N[C@]5(C(=O)NS(=O)(=O)C6CC6)C[C@H]5/C=C\CC[C@@H](C)C[C@@H](C)[C@H](NC(=O)OC(C)(C)C(F)(F)F)C(=O)N4C3)nc(-c3ccc(OC)c(F)c3)cc2c1` [Compound 3056, 1,1,1-trifluoro-2-methylpropan-2-yl((2R,6S,7R,9R,13aS,14aR,16aS,Z)-14a-((cyclopropylsulfonyl)carbamoyl)-2-((3-(3-fluoro-4-methoxyphenyl)-6-methoxyisoquinolin-1-yl)oxy)-7,9-dimethyl-5,16-dioxo-1,2,3,5,6,7,8,9,10,11,13a,14,14a,15,16,16a-hexadecahydrocyclopropa[e]pyrrolo[1,2-a][1,4]diazacyclopentadecin-6-yl)carbamate], the EC50 in assay [1] and in assay [2] was less than 5.46 nM each time.

Consider `COc1ccc2c(O[C@@H]3C[C@H]4C(=O)N[C@]5(C(=O)NS(=O)(=O)C6CC6)C[C@H]5/C=C\CC[C@H](C)C[C@@H](C)[C@H](NC(=O)O[C@@H]5C[C@@H]6C[C@@H]6C5)C(=O)N4C3)nc(-c3ccc(OC)c(F)c3)cc2c1` [Compound 3057, (1R,3r,5S)-bicyclo[3.1.0]hexan-3-yl((2R,6S,7R,9S,13aS,14aR,16aS,Z)-14a-((cyclopropylsulfonyl)carbamoyl)-2-((3-(3-fluoro-4-methoxyphenyl)-6-methoxyisoquinolin-1-yl)oxy)-7,9-dimethyl-5,16-dioxo-1,2,3,5,6,7,8,9,10,11,13a,14,14a,15,16,16a-hexadecahydrocyclopropa[e]pyrrolo[1,2-a][1,4]diazacyclopentadecin-6-yl)carbamate], for which the EC50 in assay [1] and in assay [2] was less than 5.46 nM in each case.

For `COc1ccc2c(O[C@@H]3C[C@H]4C(=O)N[C@]5(C(=O)NS(=O)(=O)C6CC6)C[C@H]5/C=C\CC[C@@H](C)C[C@@H](C)[C@H](NC(=O)O[C@@H]5C[C@@H]6C[C@@H]6C5)C(=O)N4C3)nc(-c3ccc(OC)c(F)c3)cc2c1` [Compound 3058, (1R,3r,5S)-bicyclo[3.1.0]hexan-3-yl((2R,6S,7R,9R,13aS,14aR,16aS,Z)-14a-((cyclopropylsulfonyl)carbamoyl)-2-((3-(3-fluoro-4-methoxyphenyl)-6-methoxyisoquinolin-1-yl)oxy)-7,9-dimethyl-5,16-dioxo-1,2,3,5,6,7,8,9,10,11,13a,14,14a,15,16,16a-hexadecahydrocyclopropa[e]pyrrolo[1,2-a][1,4]diazacyclopentadecin-6-yl)carbamate], the 50% effective concentration (EC50) in assay [1] and in assay [2] was less than 5.46 nM throughout.

In the case of `COc1ccc2c(O[C@@H]3C[C@H]4C(=O)N[C@]5(C(=O)NS(=O)(=O)C6CC6)C[C@H]5/C=C\CC[C@H](C)C[C@@H](C)[C@H](NC(=O)OC(C)(C)C)C(=O)N4C3)nc(-c3ccc(OC(C)C)c(F)c3)cc2c1` [Compound 3059, tert-butyl ((2R,6S,7R,9S,13aS,14aR,16aS,Z)-14a-((cyclopropylsulfonyl)carbamoyl)-2-((3-(3-fluoro-4-isopropoxyphenyl)-6-methoxyisoquinolin-1-yl)oxy)-7,9-dimethyl-5,16-dioxo-1,2,3,5,6,7,8,9,10,11,13a,14,14a,15,16,16a-hexadecahydrocyclopropa[e]pyrrolo[1,2-a][1,4]diazacyclopentadecin-6-yl)carbamate], the results for the EC50 in assay [1] and in assay [2] were 4.82 to 103 nM and less than 5.46 nM, respectively.

For the compound `COc1ccc2c(O[C@@H]3C[C@H]4C(=O)N[C@]5(C(=O)NS(=O)(=O)C6CC6)C[C@H]5/C=C\CC[C@@H](C)C[C@@H](C)[C@H](NC(=O)OC(C)(C)C)C(=O)N4C3)nc(-c3ccc(OC(C)C)c(F)c3)cc2c1` [Compound 3060, tert-butyl ((2R,6S,7R,9R,13aS,14aR,16aS,Z)-14a-((cyclopropylsulfonyl)carbamoyl)-2-((3-(3-fluoro-4-isopropoxyphenyl)-6-methoxyisoquinolin-1-yl)oxy)-7,9-dimethyl-5,16-dioxo-1,2,3,5,6,7,8,9,10,11,13a,14,14a,15,16,16a-hexadecahydrocyclopropa[e]pyrrolo[1,2-a][1,4]diazacyclopentadecin-6-yl)carbamate], the EC50 in assay [1] and in assay [2] was less than 5.46 nM throughout.

As for `COc1ccc2c(O[C@@H]3C[C@H]4C(=O)N[C@]5(C(=O)NS(=O)(=O)C6(C)CC6)C[C@H]5/C=C\CC[C@H](C)C[C@@H](C)[C@H](NC(=O)OC(C)(C)C)C(=O)N4C3)nc(-c3ccc(OC(C)C)c(F)c3)cc2c1` [Compound 3061, tert-butyl ((2R,6S,7R,9S,13aS,14aR,16aS,Z)-2-((3-(3-fluoro-4-isopropoxyphenyl)-6-methoxyisoquinolin-1-yl)oxy)-7,9-dimethyl-14a-(((1-methylcyclopropyl)sulfonyl)carbamoyl)-5,16-dioxo-1,2,3,5,6,7,8,9,10,11,13a,14,14a,15,16,16a-hexadecahydrocyclopropa[e]pyrrolo[1,2-a][1,4]diazacyclopentadecin-6-yl)carbamate], the EC50 in assay [1] was 4.82 to 103 nM; in assay [2] it was less than 5.46 nM.

For `COc1ccc2c(O[C@@H]3C[C@H]4C(=O)N[C@]5(C(=O)NS(=O)(=O)C6(C)CC6)C[C@H]5/C=C\CC[C@@H](C)C[C@@H](C)[C@H](NC(=O)OC(C)(C)C)C(=O)N4C3)nc(-c3ccc(OC(C)C)c(F)c3)cc2c1` [Compound 3062, tert-butyl ((2R,6S,7R,9R,13aS,14aR,16aS,Z)-2-((3-(3-fluoro-4-isopropoxyphenyl)-6-methoxyisoquinolin-1-yl)oxy)-7,9-dimethyl-14a-(((1-methylcyclopropyl)sulfonyl)carbamoyl)-5,16-dioxo-1,2,3,5,6,7,8,9,10,11,13a,14,14a,15,16,16a-hexadecahydrocyclopropa[e]pyrrolo[1,2-a][1,4]diazacyclopentadecin-6-yl)carbamate], the EC50 in assay [1] and in assay [2] was less than 5.46 nM each time.

As for `COc1ccc2c(O[C@@H]3C[C@H]4C(=O)N[C@]5(C(=O)NS(=O)(=O)C6CC6)C[C@H]5/C=C\CC[C@H](C)C[C@@H](C)[C@H](NC(=O)OC(C)(C)C(F)(F)F)C(=O)N4C3)nc(-c3ccc(OC(C)C)c(F)c3)cc2c1` [Compound 3063, 1,1,1-trifluoro-2-methylpropan-2-yl((2R,6S,7R,9S,13aS,14aR,16aS,Z)-14a-((cyclopropylsulfonyl)carbamoyl)-2-((3-(3-fluoro-4-isopropoxyphenyl)-6-methoxyisoquinolin-1-yl)oxy)-7,9-dimethyl-5,16-dioxo-1,2,3,5,6,7,8,9,10,11,13a,14,14a,15,16,16a-hexadecahydrocyclopropa[e]pyrrolo[1,2-a][1,4]diazacyclopentadecin-6-yl)carbamate], the EC50 was 4.82 to 103 nM in assay [1] and less than 5.46 nM in assay [2].

For the compound `COc1ccc2c(O[C@@H]3C[C@H]4C(=O)N[C@]5(C(=O)NS(=O)(=O)C6CC6)C[C@H]5/C=C\CC[C@@H](C)C[C@@H](C)[C@H](NC(=O)OC(C)(C)C(F)(F)F)C(=O)N4C3)nc(-c3ccc(OC(C)C)c(F)c3)cc2c1` [Compound 3064, 1,1,1-trifluoro-2-methylpropan-2-yl((2R,6S,7R,9R,13aS,14aR,16aS,Z)-14a-((cyclopropylsulfonyl)carbamoyl)-2-((3-(3-fluoro-4-isopropoxyphenyl)-6-methoxyisoquinolin-1-yl)oxy)-7,9-dimethyl-5,16-dioxo-1,2,3,5,6,7,8,9,10,11,13a,14,14a,15,16,16a-hexadecahydrocyclopropa[e]pyrrolo[1,2-a][1,4]diazacyclopentadecin-6-yl)carbamate], the EC50 in assay [1] and in assay [2] was less than 5.46 nM in each case.

On to `COc1ccc2c(O[C@@H]3C[C@H]4C(=O)N[C@]5(C(=O)NS(=O)(=O)C6CC6)C[C@H]5/C=C\CC[C@H](C)C[C@@H](C)[C@H](NC(=O)OCC5(C)CC5)C(=O)N4C3)nc(-c3ccc(OC(C)C)c(F)c3)cc2c1` [Compound 3065, (1-methylcyclopropyl)methyl ((2R,6S,7R,9S,13aS,14aR,16aS,Z)-14a-((cyclopropylsulfonyl)carbamoyl)-2-((3-(3-fluoro-4-isopropoxyphenyl)-6-methoxyisoquinolin-1-yl)oxy)-7,9-dimethyl-5,16-dioxo-1,2,3,5,6,7,8,9,10,11,13a,14,14a,15,16,16a-hexadecahydrocyclopropa[e]pyrrolo[1,2-a][1,4]diazacyclopentadecin-6-yl)carbamate], for which the EC50 in assay [1] is 4.82 to 103 nM; in assay [2], less than 5.46 nM.

As for `COc1ccc2c(O[C@@H]3C[C@H]4C(=O)N[C@]5(C(=O)NS(=O)(=O)C6CC6)C[C@H]5/C=C\CC[C@@H](C)C[C@@H](C)[C@H](NC(=O)OCC5(C)CC5)C(=O)N4C3)nc(-c3ccc(OC(C)C)c(F)c3)cc2c1` [Compound 3066, (1-methylcyclopropyl)methyl ((2R,6S,7R,9R,13aS,14aR,16aS,Z)-14a-((cyclopropylsulfonyl)carbamoyl)-2-((3-(3-fluoro-4-isopropoxyphenyl)-6-methoxyisoquinolin-1-yl)oxy)-7,9-dimethyl-5,16-dioxo-1,2,3,5,6,7,8,9,10,11,13a,14,14a,15,16,16a-hexadecahydrocyclopropa[e]pyrrolo[1,2-a][1,4]diazacyclopentadecin-6-yl)carbamate], the EC50 in assay [1] and in assay [2] was less than 5.46 nM throughout.

As a reminder, the EC50 is the concentration that produces a half-maximal response.
